Test [1] concerns the target T1, NS3 (Hepatitis C virus, UniProt A3EZJ3). In words: Inhibitory activity against NS3 protease complexed with NS4A cofactor peptide (NS3-4A pep). Also noted: species or system Hepacivirus hominis.
For test [2], the target named is Chymotrypsinogen B (Homo sapiens, UniProt P17538). The experiment in a line: Compound was evaluated for its inhibitory activity against Chymotrypsinogen.
The target of test [3] is T2, Neutrophil elastase (Homo sapiens, UniProt P08246).
T2 sequence (P08246 whole entry): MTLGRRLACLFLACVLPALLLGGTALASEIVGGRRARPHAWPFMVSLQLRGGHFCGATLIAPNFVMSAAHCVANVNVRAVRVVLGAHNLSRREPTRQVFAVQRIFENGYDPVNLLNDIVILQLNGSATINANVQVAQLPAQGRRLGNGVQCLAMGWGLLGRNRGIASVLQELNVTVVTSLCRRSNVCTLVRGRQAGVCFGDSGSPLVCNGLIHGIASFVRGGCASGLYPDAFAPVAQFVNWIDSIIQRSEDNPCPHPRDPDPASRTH
In words: Compound was evaluated for its inhibitory activity against human leukocyte elastase (HLE).

Test [4] has as its target T1, NS3. The experiment in a line: Compound was evaluated for its binding affinity against NS3 protease complexed with NS4A cofactor peptide (NS3-4A pep). Also noted: species or system Hepacivirus hominis.
For test [5], the target named is Cathepsin B (Homo sapiens, UniProt P07858). The experiment in a line: Compound was evaluated for its inhibitory activity against cathepsin B.

Starred links: 1 amine or outer side, 2 acyl side, 3 side chain; linkers in the order of their positions; H or OH if unused. Non-standard residues stand in square brackets, D forms with d. Residues, ends and D or L forms follow the SMILES beside them. *: point of attachment. X2 = O=C([C@@H]1C[C@@H](CCCc2ccccc2)CN1[*:1])[*:2]; X3 = O=C([C@@H]1C[C@@H](CCc2ccccc2)CN1[*:1])[*:2]; Pro(4R-Bn) = O=C(O)[C@@H]1C[C@@H](Cc2ccccc2)CN1; CH2(1-naphthyl) = c1ccc2c(C*)cccc2c1; mXylylene = c1cc(C[*:1])cc(C[*:2])c1; oXylylene = c1ccc(C[*:2])c(C[*:1])c1; Glutaryl = O=C(CCCC(=O)[*:2])[*:1]; Hyp = O=C(O)[C@@H]1C[C@@H](O)CN1; Chg = N[C@H](C(=O)O)C1CCCCC1; Nva = CCC[C@H](N)C(=O)O; X1 = c1ccc2cc(C*)ccc2c1; Ac3c = NC1(C(=O)O)CC1; Meb = Cc1ccc(C*)cc1; CF3 = FC(F)(F)*

T1 sequence (A3EZJ3 whole entry): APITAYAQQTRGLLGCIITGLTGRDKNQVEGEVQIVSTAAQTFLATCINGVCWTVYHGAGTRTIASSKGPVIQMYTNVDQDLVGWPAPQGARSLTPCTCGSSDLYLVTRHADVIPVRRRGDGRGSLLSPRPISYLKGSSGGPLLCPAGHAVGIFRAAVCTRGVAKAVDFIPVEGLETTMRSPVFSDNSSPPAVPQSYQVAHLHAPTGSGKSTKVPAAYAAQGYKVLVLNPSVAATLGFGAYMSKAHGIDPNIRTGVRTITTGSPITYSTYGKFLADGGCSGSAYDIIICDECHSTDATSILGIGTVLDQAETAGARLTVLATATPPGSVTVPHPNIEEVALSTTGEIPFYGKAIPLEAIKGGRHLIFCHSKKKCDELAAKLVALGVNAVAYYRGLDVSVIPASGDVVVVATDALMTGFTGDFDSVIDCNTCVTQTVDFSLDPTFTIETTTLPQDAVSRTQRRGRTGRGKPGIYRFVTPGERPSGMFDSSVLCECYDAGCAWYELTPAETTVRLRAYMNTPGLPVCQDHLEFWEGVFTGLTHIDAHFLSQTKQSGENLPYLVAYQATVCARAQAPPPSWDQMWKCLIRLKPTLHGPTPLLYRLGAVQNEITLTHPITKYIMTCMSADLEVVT
Chain of Chymotrypsinogen B (P17538 34-164 limits assumed, other chains not shown): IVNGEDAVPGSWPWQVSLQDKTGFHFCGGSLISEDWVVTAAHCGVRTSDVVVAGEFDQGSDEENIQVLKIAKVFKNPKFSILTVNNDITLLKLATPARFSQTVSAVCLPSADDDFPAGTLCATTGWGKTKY
Chain of Chymotrypsinogen B (P17538 167-263 limits assumed, other chains not shown): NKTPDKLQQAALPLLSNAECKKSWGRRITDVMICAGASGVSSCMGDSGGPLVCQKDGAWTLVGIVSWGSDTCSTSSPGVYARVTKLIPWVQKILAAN

For orientation: IC50 means the concentration that gives 50% inhibition. In test [1], `CCC[C@H](NC(=O)[C@@H]1CCCN1C(=O)[C@@H](NC(=O)[C@@H](NC(=O)[C@@H](CC(=O)O)NC(=O)[C@H](CC(=O)O)NC(C)=O)[C@@H](C)CC)C(C)C)C(=O)O` (Ac-D[dD]IVP[Nva]-OH) yielded an IC50 of 17 µM. The molecule `CCC[C@H](NC(=O)[C@@H]1C[C@@H](O)CN1C(=O)[C@@H](NC(=O)[C@@H](NC(=O)[C@H](CC(=O)O)NC(=O)[C@H](CC(=O)O)NC(C)=O)[C@@H](C)CC)C(C)C)C(=O)O` (Ac-DDIV[Hyp][Nva]-OH) registered an IC50 in test [1] of 93 µM. Compared with the last molecule, the IC50 is about 5.5-fold higher. On the same count and under the same terms, for `CCC[C@H](NC(=O)[C@@H]1CCCN1C(=O)[C@@H](NC(=O)[C@@H](NC(=O)[C@H](CC(=O)O)NC(=O)[C@H](CC(=O)O)NC(C)=O)[C@@H](C)CC)C(C)C)C(=O)O` (Ac-DDIVP[Nva]-OH) the value was 150 µM. For orientation: Ki means a dissociation constant, usually derived from enzyme kinetics or from competition with a known ligand. A high value points to lower affinity. Regarding `CCC[C@H](NC(=O)[C@@H]1C[C@@H](OCc2ccc3ccccc3c2)CN1C(=O)[C@@H](NC(=O)[C@@H](NC(=O)[C@@H](CCC(=O)O)NC(=O)[C@H](CC(=O)O)NC(C)=O)C1CCCCC1)C(C)C)C(=O)O` (Ac-D[dE][Chg]V[Hyp](X1)[Nva]-OH), the IC50 is greater than 300 µM in test [2], 0.027 µM in test [1], greater than 300 µM in test [3] and greater than 300 µM in test [5]. In addition, affinity in test [4] was put at a Ki of 0.003 µM. As for `CCC[C@H](NC(=O)[C@@H]1C[C@@H](OCc2ccc(C)cc2)CN1C(=O)[C@@H](NC(=O)[C@@H](NC(=O)[C@H](CC(=O)O)NC(=O)[C@H](CC(=O)O)NC(C)=O)[C@@H](C)CC)C(C)C)C(=O)O` (Ac-DDIV[Hyp](Meb)[Nva]-OH), the IC50 in test [1] stood at 2.5 µM. On the same count and under the same terms, for `CCC[C@H](NC(=O)[C@@H]1C[C@@H](OCc2ccc3ccccc3c2)CN1C(=O)[C@@H](NC(=O)[C@@H](NC(=O)[C@H](CC(=O)O)NC(=O)[C@H](CC(=O)O)NC(C)=O)[C@@H](C)CC)C(C)C)C(=O)O` (Ac-DDIV[Hyp](X1)[Nva]-OH) the value was 0.71 µM; for `CC[C@H](C)[C@H](NC(=O)[C@H](CC(=O)O)NC(=O)[C@H](CC(=O)O)NC(C)=O)C(=O)N[C@H](C(=O)N1CCC[C@H]1C(=O)NC1(C(=O)O)CC1)C(C)C` (Ac-DDIVP[Ac3c]-OH), 54 µM; for `CCC[C@H](NC(=O)[C@@H]1C[C@@H](CCc2ccccc2)CN1C(=O)[C@@H](NC(=O)[C@@H](NC(=O)[C@H](CC(=O)O)NC(=O)[C@H](CC(=O)O)NC(C)=O)[C@@H](C)CC)C(C)C)C(=O)O` (Ac-DDIV[X3][Nva]-OH), 10 µM. Same read-out and setting: for `CC(=O)N[C@@H](CC(=O)O)C(=O)N[C@H](CCC(=O)O)C(=O)N[C@H](C(=O)N[C@H](C(=O)N1C[C@H](OCc2cccc3ccccc23)C[C@H]1C(=O)NC1(C(=O)O)CC1)C(C)C)C1CCCCC1` (Ac-D[dE][Chg]V[Hyp](CH2(1-naphthyl))[Ac3c]-OH) the value was 0.013 µM; for `CCC[C@H](NC(=O)[C@@H]1CCCN1C(=O)[C@@H](NC(=O)[C@@H](NC(=O)[C@@H](CC(=O)O)NC(=O)[C@H](CC(=O)O)NC(C)=O)[C@@H](C)CC)C(C)C)C(=O)C(F)(F)F` (Ac-D[dD]IVP[Nva]-CF3), 22 µM. As to `CC(=O)N[C@H](C(=O)N[C@H](C(=O)N1C[C@H](OCc2cccc3ccccc23)C[C@H]1C(=O)NC1(C(=O)O)CC1)C(C)C)C1CCCCC1` (Ac-[Chg]V[Hyp](CH2(1-naphthyl))[Ac3c]-OH), the values for the 50% inhibitory concentration (IC50) in test [1] and in test [3] were 3.5 µM and greater than 600 µM, respectively. The molecule `CC(C)[C@H](NC(=O)[C@@H](NC(=O)CCCC(=O)O)C1CCCCC1)C(=O)N1C[C@H](OCc2cccc3ccccc23)C[C@H]1C(=O)NC1(C(=O)O)CC1` (Glutaryl-[Chg]V[Hyp](CH2(1-naphthyl))[Ac3c]-OH) had an IC50 in test [1] of 0.9 µM. This lies in the sub-micromolar range. In test [1], `CCC[C@H](NC(=O)[C@@H]1CCCN1C(=O)[C@@H](NC(=O)[C@@H](NC(=O)[C@@H](CCC(=O)O)NC(=O)[C@H](CC(=O)O)NC(C)=O)[C@@H](C)CC)C(C)C)C(=O)O` (Ac-D[dE]IVP[Nva]-OH) showed a half-maximal inhibitory concentration (IC50) of 7.5 µM. This IC50 is about 8.3-fold higher than that of the molecule before.

For `CCC[C@H](NC(=O)[C@@H]1C[C@@H](OCc2cccc(C)c2)CN1C(=O)[C@@H](NC(=O)[C@@H](NC(=O)[C@H](CC(=O)O)NC(=O)[C@H](CC(=O)O)NC(C)=O)[C@@H](C)CC)C(C)C)C(=O)O` (Ac-DDIV[Hyp](mXylylene)[Nva]-OH), the IC50 in test [1] turned out to be 3.5 µM. Same read-out and setting: to `CCC[C@H](NC(=O)[C@@H]1C[C@@H](Cc2ccccc2)CN1C(=O)[C@@H](NC(=O)[C@@H](NC(=O)[C@H](CC(=O)O)NC(=O)[C@H](CC(=O)O)NC(C)=O)[C@@H](C)CC)C(C)C)C(=O)O` (Ac-DDIV[Pro(4R-Bn)][Nva]-OH) belongs 60 µM; to `CCC[C@H](NC(=O)[C@@H]1C[C@@H](OCc2ccccc2C)CN1C(=O)[C@@H](NC(=O)[C@@H](NC(=O)[C@H](CC(=O)O)NC(=O)[C@H](CC(=O)O)NC(C)=O)[C@@H](C)CC)C(C)C)C(=O)O` (Ac-DDIV[Hyp](oXylylene)[Nva]-OH), 6.8 µM.

`CCC[C@H](NC(=O)[C@@H]1C[C@@H](OCc2cccc3ccccc23)CN1C(=O)[C@@H](NC(=O)[C@@H](NC(=O)[C@H](CC(=O)O)NC(=O)[C@H](CC(=O)O)NC(C)=O)[C@@H](C)CC)C(C)C)C(=O)O` (Ac-DDIV[Hyp](CH2(1-naphthyl))[Nva]-OH) showed an IC50 in test [1] of 0.39 µM. On the same count and under the same terms, to `CCC[C@H](NC(=O)[C@@H]1C[C@@H](CCCc2ccccc2)CN1C(=O)[C@@H](NC(=O)[C@@H](NC(=O)[C@H](CC(=O)O)NC(=O)[C@H](CC(=O)O)NC(C)=O)[C@@H](C)CC)C(C)C)C(=O)O` (Ac-DDIV[X2][Nva]-OH) belongs 3.3 µM.
